In patent US7285567B2, “Halogenated benzamide derivatives” (Romark Laboratories, L.C., priority 2005, dated 2007):
Where two headings read alike, the source gives them in different places.

Tests used:
[1] = tested on: anaerobic Gram positive cocci; test: CLSI agar dilution MIC, anaerobic clinical isolates; type: cell-based; settings: Gram + cocci (16 isolates), 48 h
[2] = tested on: anaerobic Gram-positive non-sporeforming rods; test: as above; type: cell-based; settings: Gram + rods (14 isolates), 48 h
[3] = tested on: anaerobic bacteria (all 142 isolates); test: CLSI agar dilution MIC, all anaerobic clinical isolates; type: cell-based
[4] = tested on: Rhabdovirus: Vesicular stomatitis virus; test: microbe, parasite or virus in culture; type: cell-based
fusobacteria = test: CLSI agar dilution MIC, anaerobic clinical isolates; type: cell-based; settings: Fusobacteria (28 isolates), 48 h
Method: (§1) Methods. Recent clinical anaerobic isolates (2000 to date) comprised 40 B. fragilis group, 26 Prevotella/Porphyromonas, 28 fusobacteria, 16 anaerobic Gram positive cocci, 14 anaerobic Gram-positive non-sporeforming rods and 18 clostridia. CLSI agar dilution MIC methodology with enriched Brucella blood agar and inocula of 1×10^5 cfu/spot was used. Plates were incubated in an anaerobic glove box at 35° C. for 48 h. Results.

Prevotella/Porphyromonas = test: as above; type: cell-based; settings: Prev/Porphy (26 isolates), 48 h
Method: as §1

B. fragilis group = test: as above; type: cell-based; settings: Bacteroides fragilis, B. fragilis gp (40 isolates), 48 h, 35° C.
Method: as §1

[5] = tested on: H3N2 influenza virus, type A; test: Multiple cycle CPE inhibition assay on MDCK cell monolayers; type: cell-based; settings: 0% EMEM + Hepes + Trypsin
Method: (§2) EC50 (μg/mL) values for 2-(acetolyloxy)-3-methyl-N-(5-bromo-2-thiazolyl)benzamide (RM4803), 2-(acetolyloxy)-3-methyl-N-(5-chloro-2-thiazolyl)benzamide (RM4804), and 2-(acetolyloxy)-3-methoxy-N-(5-bromo-2-thiazolyl)benzamide (RM4806), on Human Rhinovirus Type 39 (HRV-39), and H3N2 influenza virus, type A, using a multiple cycle CPE inhibition assay on OH-I Hela and Madin Darby Canine Kidney (MDCK) cell monolayers, respectively, were measured by microscopic and spectrophotometric methods. Pirodavir and Oseltamivir were included as positive controls.

Influenza A: PR8 strain = test: microbe, parasite or virus in culture; type: cell-based, Influenza A virus
[6] = tested on: Human Rhinovirus Type 39 (HRV-39); test: Multiple cycle CPE inhibition assay on OH-I Hela cell monolayers; type: cell-based; settings: Rhinovirus A, HRV39, HRV-39, OH-Hela, 2% McCoys + Hepes Buffer
Method: as §2

[7] = tested on: Rotavirus: Simian Rotavirus SA-11; test: microbe, parasite or virus in culture; type: cell-based; settings: Simian rotavirus SA-11, MA104 cell culture
Hepatitis B Virus (HBV) = test: HBV replication in 2.2.15 cell culture, 9-day assay; type: cell-based; settings: for EC50 / EC90: Hepatitis B virus, 2.2.15 cells
Method: (§3) Anti-Hepatitis B Virus (HBV) analyses and an assessment of cytotoxicity were performed in a 9-day assay in the chronically-producing HBV human hepatoblastoma cell line, 2.2.15, as previously described (Korba, B. E. & Gerin, J. L. Use of a standardized cell culture assay to assess activities of nucleosides analogues against hepatitis B virus replication. Antivir. Res. 19, 55-70 (1992)).
(§4) Values presented (±standard deviations [S.D.]) were calculated by linear regression analysis using data combined from all treated cultures. S.D. were calculated using the standard error of regression generated from linear regression analyses (QuattroPro™). EC50, EC90=drug concentration at which a 2-fold, or a 10-fold depression of HBV DNA (relative to the average levels in untreated cultures), respectively, was observed, CC50=drug concentration at which a 2-fold depression of neutral red dye uptake (relative to the average levels in untreated cultures) was observed, The EC90 values were used for the calculation of the Selectivity Indexes [S.I.] since at least a 3-fold depression of HBV levels is typically required to achieve statistical significance in this assay system. HBV R.I.=intracellular HBV DNA replication intermediate.

[8] = tested on: hepatitis C virus (HCV) replicon; test: HCV replication in AVA5 replicon cell culture, 3-day assay; type: cell-based; settings: AVA5 cells
Method: (§5) Anti-Hepatitis C Virus (HCV) analyses and an assessment of cytotoxicity were performed in a 3-day assay in the HCV replicon-containing human hepatoblastoma cell line, AVA5 (Okuse, C., Rinaudo, J. A., Farrar, K., Wells, F. & Korba, B. E. Enhancement of antiviral activity against hepatitis C virus in vitro by interferon combination therapy. Antivir. Res. 65, 23-34 (2005)) as previously described (Blight, K. J., Kolykhalov, A. A. & Rice, C. M. Efficient initiation of HCV RNA replication in cell culture. Science 290, 1972-1974 (2000)).
(§6) Values presented (±standard deviations [S.D.]) were calculated by linear regression analysis using data combined from all treated cultures. S.D. were calculated using the standard error of regression generated from the linear regression analyses (QuattroPro™). EC50, EC90=drug concentration at which a 2-fold, or a 10-fold depression of HCV RNA (relative to the average levels in untreated cultures), respectively, was observed. CC50=drug concentration at which a 2-fold depression of neutral red dye uptake was observed relative to the average levels in untreated cultures. Selectivity index=CC50/EC50.

[9] = Cytotoxicity in AVA5 cells (neutral red dye uptake); type: cell-based, human; settings: human, 2-fold depression of neutral red dye uptake
Method: as §5, §6

clostridia = test: organism not typed; type: cell-based; settings: Clostridia (18 isolates), agar dilution, 48 h
[10] = tested on: Herpes Simplex type 1: strain F1; test: microbe, parasite or virus in culture; type: cell-based, Herpes Simplex virus type 1; settings: Herpes Simplex type 1 strain F1, HEp-2 cell culture
[11] = Cytotoxicity in 2.2.15 cells (neutral red dye uptake); type: cell-based; settings: human, 2-fold depression of neutral red dye uptake
Method: as §3, §4

[12] = All (142 isolates), agar dilution, 48 h
[13] = microscopic reading, read-out: EC50, Microscopic
[14] = spectrophotometric reading, read-out: EC50, Spectrophotometer

Q: Which results are given for CC(=O)Oc1c(C)cccc1C(=O)Nc1ncc(Br)s1 [RM-4803, 2-(acetolyloxy)-3-methyl-N-(5-bromo-2-thiazolyl)benzamide]?
A: MIC50 [1]: > 32 µg/mL; MIC90 [1]: > 32 µg/mL; MIC50 [2]: > 32 µg/mL; MIC90 [2]: > 32 µg/mL; MIC50 [3, 12]: > 32 µg/mL; MIC90 [3, 12]: > 32 µg/mL; Activity against anaerobic bacteria groups (summary in words) ([3]; summary of MIC results): without significant activity; EC50 ([4]; MA104): 2.8 µM; SI (selectivity index) = CC50/EC50 ([4]; MA104 cell culture, CC50 by MTT): > 50; MIC50 (fusobacteria): > 32 µg/mL; MIC90 (fusobacteria): > 32 µg/mL; MIC50 (Prevotella/Porphyromonas): > 32 µg/mL; MIC90 (Prevotella/Porphyromonas): > 32 µg/mL; MIC50 (B. fragilis group): > 32 µg/mL; MIC90 (B. fragilis group): > 32 µg/mL; EC50 [5, 13]: 0.45 µg/mL; EC50 [5, 14]: 0.18 µg/mL; SI (selectivity index) = CC50/EC50 (Influenza A: PR8 strain; Influenza A PR8 strain, MDCK cell culture, CC50 by MTT): > 50; EC50 (Influenza A: PR8 strain; Influenza A virus, PR8, MDCK): 2.8 µM; EC50 [6, 13]: 0.06 µg/mL; EC50 [6, 14]: 0.03 µg/mL; EC50 ([7]; Rotavirus A): 0.06 µM; SI (selectivity index) = CC50/EC50 ([7]; CC50 by MTT): > 2500; EC50 (Hepatitis B Virus (HBV); 2-fold depression of HBV DNA, read-out: Extracellular Virion DNA EC50): 6.3 ± 0.7 µM; EC90 (Hepatitis B Virus (HBV); 10-fold depression of HBV DNA, read-out: Extracellular Virion DNA EC90): 15 ± 1.1 µM; EC50 (Hepatitis B Virus (HBV); intracellular HBV DNA replication intermediate, 2-fold depression, read-out: Intracellular HBV R.I. EC50): 12 ± 1.5 µM; EC90 (Hepatitis B Virus (HBV); intracellular HBV DNA replication intermediate, 10-fold depression, read-out: Intracellular HBV R.I. EC90): 50 ± 5.5 µM; Selectivity Index R.I. (Hepatitis B Virus (HBV); calculated with EC90 values (CC50/EC90), HBV R.I.): >20; Selectivity Index Virion (Hepatitis B Virus (HBV); calculated with EC90 values (CC50/EC90), virion DNA): >67; Selectivity Index ([8]; CC50/EC50): 7.6; EC50 ([8]; Hepatitis C virus, 2-fold depression of HCV RNA, read-out: EC50): 37 ± 2.7 µM; EC90 ([8]; Hepatitis C virus, 10-fold depression of HCV RNA, read-out: EC90): 98 ± 9.3 µM; CC50 at 3 day [9]: 282 ± 21 µM; MIC50 (clostridia; read-out: MIC50): > 32 µg/mL; MIC90 (clostridia; read-out: MIC90): > 32 µg/mL; SI (selectivity index) = CC50/EC50 ([10]; CC50 by MTT): 3; EC50 ([10]; Human alphaherpesvirus 1): 5.6 µM; CC50 at 9 day [11]: > 1000 µM
